Tested on: isolated rat adipocytes
Assay: Glucose transport (2-deoxyglucose uptake) in isolated rat adipocytes after primary culture with leptin, basal and insulin-stimulated
Type: cell-based
Protocol: Adipocytes were prepared from the epididymal fat tissue of male Wistar rats (140-160 g, Hoechst AG breeding station, Kastengrund) by means of digesting with collagenase (Rodbell, 1964, J. Biol. Chem. 239, 375-380), washed twice with KRH (25 mM Hepes free acid, 25 mM Hepes sodium salt, 80 mM NaCl, 1 mM MgSO4, 2 mM CaCl2, 6 mM KCl, 1 mM sodium pyruvate, 0.5% BSA) and once with DMEM (Dulbecco's minimal essential medium), supplemented with 5.5 mM glucose, 20 mM Hepes (pH 7.4), 2% fetal calf serum, 1% BSA, 50 U of penicillin/ml, […], by means of flotation (800×g, 1 min, in small plastic tubes), and finally diluted to a volume of 20 ml of DMEM/g wet weight of the fat tissue (cell titer: approximately 2.5×10^5 cells/ml).
The adipocytes were incubated, at 37° C. for 15-18 h under an atmosphere of 5% CO2 and with gentle shaking, in supplemented (see above) DMEM in the presence of 100 nM phenylisopropyladenosine (4 ml of DMEM to 1 ml of cells, cell titer approximately 5×10^4 cell/ml, in 50 ml sterile polypropylene: tubes) and in the presence or absence of leptin. The adipocytes were subsequently washed three times with cold KRH and adjusted to a cell titer of approximately 3×10^5 cells/ml by adding 0.7 ml of glucose-free KRH to the cell layer which remained after the complete removal of the last washing solution. In order to determine the capacity of the adipocytes to be stimulated by insulin, and their sensitivity to insulin, following the primary culture, the washed adipocytes were incubated at 37° C. for 20 min in the absence or presence of human insulin (0.02-50 nM final concentration), and glucose transport or lipogenesis was then measured.
Glucose transport was measured as the specific uptake of the non-metabolizable glucose analog 2-deoxyglucose (Muller and Wied, 1993, Diabetes 42, 1852-1867). 50 μl of the adipocyte suspension in KRH, which suspension had or had not been preincubated with insulin (see above), were incubated, at 25° C. for 5 min, with 50 μl of KRH which was supplemented with 2-deoxy-D-[2,6-^3H]glucose (0.5 μCi, 0.2 mM). The incubation mixtures were transferred to thin soft-plastic centrifuge tubes, each of which already contained 200 μl of dinonyl phthalate oil, and immediately centrifuged (2,000×g, 30 sec). Using special shears, the tubes were severed within the oil layer (in the vicinity of the upper edge) and the upper halves of the tubes, together with the cell layers which had in each case been floated onto the oil layer, were transferred to scintillation vials. After 10 ml of scintillation fluid (water-based) had been added, the radioactivity associated with the cells was measured. In order to correct for 2-deoxyglucose which had become enclosed in the cell interstices, or had diffused into the cells, in a non-specific manner, the radioactivity of cells which had been preincubated with cytochalasin B (20 μM) was subtracted from the total cell-associated radioactivity of each individual incubation mixture (Gliemann et al., 1972, Biochim. Biophys. Acta 286, 1-9).
Isolated rat adipocytes were incubated for 15 h in primary culture in the presence or absence of increasing concentrations of leptin. […] The stimulation factor for insulin was calculated as the ratio between insulin-stimulated and basal activities. Each value represents the mean from two independent adipocyte cultures with activity being determined two or three times in each case.
The cells were then washed and tested for the stimulation of glucose transport by differing concentrations of insulin. Glucose transport activity is given as a “dpm value” of the 2deoxy-[^3H]glucose which is specifically associated with the cells. Each value represents the mean from two independent adipocyte cultures with the activity being determined four times in each case.

What does the source list for “Insulin: human insulin used to stimulate adipocytes [reference compound]”?
stimulation of glucose transport by insulin (insulin 10 nM): approximately 14 fold; insulin concentration at which effects can already be detected in vitro (insulin dose/effect curves, glucose transport): 0.1 to 0.2 nM; glucose transport, uptake of 3H-labeled 2-deoxyglucose (no leptin, insulin 0.02 nM): 784 dpm; glucose transport, uptake of 3H-labeled 2-deoxyglucose (no leptin, insulin 0.05 nM): 1285 dpm; glucose transport, uptake of 3H-labeled 2-deoxyglucose (no leptin, insulin 0.1 nM): 2406 dpm; glucose transport, uptake of 3H-labeled 2-deoxyglucose (no leptin, insulin 0.2 nM): 4762 dpm; glucose transport, uptake of 3H-labeled 2-deoxyglucose (no leptin, insulin 0.5 nM): 6976 dpm; glucose transport, uptake of 3H-labeled 2-deoxyglucose (no leptin, insulin 1 nM): 7981 dpm; glucose transport, uptake of 3H-labeled 2-deoxyglucose (no leptin, insulin 2 nM): 8576 dpm; glucose transport, uptake of 3H-labeled 2-deoxyglucose (no leptin, insulin 5 nM): 8956 dpm; glucose transport, uptake of 3H-labeled 2-deoxyglucose (no leptin, insulin 10 nM): 9064 dpm; glucose transport, uptake of 3H-labeled 2-deoxyglucose (no leptin, insulin 50 nM): 9072 dpm; Glucose Transport, stimulation factor for insulin (stimulated/basal) (no leptin, Insulin concentration: 5 nM): 13.4

Source: US6399745B1, “Use of leptin antagonists for treating insulin resistance in type II diabetes” (Aventis Pharma Deutschland GmbH, priority 1996, dated 2002)
